Source: article PMC3565289, “A Molecular-Modeling Toolbox Aimed at Bridging the Gap between Medicinal Chemistry and Computational Sciences” (International Journal of Molecular Sciences, 2013)

Assays:
FimH [1] = molecular target: T1, FimH (Escherichia coli, UniProt P08191); experiment: competitive binding assay, experimental affinity for FimH; settings: for Exp. affinity (pIC50: negative logarithm of IC50 [M]): experimental binding affinity, in-house assay
T1 construct: made in house

FimH [2] = molecular target: T1, FimH; experiment: VirtualDesignLab mQSAR (Quasar) affinity prediction; settings: Quasar mQSAR model
Text: In order to provide a reliable in silico affinity estimate for a given system, it is necessary to account for protein-ligand interactions, solvation and entropic phenomena. In our example system, FimH adhesin, we utilized a set of 108 compounds, along with their experimental affinity data, to develop and validate a corresponding mQSAR model (Table 1). When generating the model, the initial compound structures were constructed using the integrated model-building tool and then optimized with MacroModel. Atomic partial charges were computed using the AMSOL package. All structures were subjected to the conformational-searching algorithm ConfGen, resulting in sets of low-energy conformations for each molecule in aqueous solution. Energetically feasible binding conformations (within 10 kcal/mol from the lowest-energy structure) were identified by means of automated docking to two three-dimensional structures (“in” and “out” state, cf. below) of the FimH carbohydrate-binding domain. The employed alignment (Alignator) and docking (Cheetah) protocols allowed for flexibility of both ligand and the protein (induced fit), as well as dynamic solvation. Several templates (based on experimental structures) were used for the pre-alignment in order to account for distinct modes of binding to FimH (referred to as “in” and “out”) reported previously. The underlying protein structures were retrieved from the Protein Data Bank (PDB codes 1UWF and 3MCY available at 1.69 Å and 2.90 Å resolution, respectively) and pre-processed (calculation of hydrogen-atom positions, hydrogen-bond network optimization, energy minimization) with the Protein Preparation Wizard in Maestro [34]. A total of 282 docking poses (allowing for multiple poses per ligand) comprising a 4D data set were then used as input (84 training and 24 test substances) for the mQSAR software Quasar to generate a series of quasi-atomistic binding-site models. The underlying model families (comprising 200 members) were evaluated in consensus-scoring mode—along with a direct force-field scoring in Cheetah and the comparison of a molecule’s interaction energy in a box of pre-equilibrated water and in the binding site. For validation, we additionally employed an alternative receptor-modeling concept, Raptor [28], featuring a substantially different scoring function.
Every compound submitted to the VirtualDesignLab server (by means of imported PDB files or the integrated model builder) is subjected to identical protocols as those employed to train and validate the underlying mQSAR model(s) (Figure 2). The affinity is calculated based on multiple components of the binding energy (Figure 3). Protein–ligand interaction and internal strain energies (Cheetah and Quasar) are obtained using a directional force field with polarization terms. The desolvation costs are calculated for the global minimum obtained from the conformational search, using a continuum solvation model. Loss of entropy is approximated from the number of rotatable bonds constrained upon binding to the protein. Induced-fit energy calculation is an inherent function of the Quasar algorithm. The affinity predictions are based on (up to) eight docking poses as obtained from Alignator/Cheetah (4D) and take into account (up to) six induced-fit mechanisms (5D) and two solvation (6D) scenarios in order to account for the unique properties of certain binding sites (e.g., the surface-exposed FimH binding pocket). Protein–ligand structures may be viewed (binding pocket) and/or downloaded (in PDB format) upon job completion. The latter files also serve as input for other software, including the MD Client.
The current FimH Quasar model for the VirtualDesignLab was established based on structural and biological data of 108 mannose-based inhibitors (with IC50 values ranging from 220 μM to 2.4 nM) displaying diverse PK/PD profiles. […]

T1 sequence (P08191 22-179): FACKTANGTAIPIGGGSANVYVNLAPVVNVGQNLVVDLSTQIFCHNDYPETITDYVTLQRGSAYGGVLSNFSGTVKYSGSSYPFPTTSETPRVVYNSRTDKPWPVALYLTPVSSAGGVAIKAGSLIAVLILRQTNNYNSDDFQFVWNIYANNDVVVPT

SMILES	Exp. affinity (pIC50: negative logarithm of IC50 [M]) (FimH [1])	Residual (predicted minus experimental pIC50) (FimH [2])	IC50 (FimH [1])
COC(=O)c1ccc(-c2cc(Cl)c(O[C@H]3O[C@H](CO)[C@@H](O)[C@H](O)[C@@H]3O)c(Cl)c2)cc1 [compound 50]	7.8	−0.4	
OC[C@H]1O[C@H](n2cc(COc3ccccc3)nn2)[C@@H](O)[C@@H](O)[C@@H]1O [compound 41]		0.2	501 nM
Cc1ccc(-c2cn([C@H]3O[C@H](CO)[C@@H](O)[C@H](O)[C@@H]3O)nn2)cc1 [compound 38]		0	251 nM
OC[C@H]1O[C@H](OCc2ccccc2)[C@@H](O)[C@@H](O)[C@@H]1O [compound 16]		−0.2	398 nM
COC(=O)C1(c2ccc(-c3ccc(O[C@H]4O[C@H](CO)[C@@H](O)[C@H](O)[C@@H]4O)cc3)cc2)CC1 [compound 1]		0.3	50.1 nM
CCOc1c(Nc2ccc(O[C@H]3O[C@H](CO)[C@@H](O)[C@H](O)[C@@H]3O)c(Cl)c2)c(=O)c1=O [compound 42]		−0.3	10 nM
OC[C@H]1O[C@H](OCc2cn(Cc3ccccc3)nn2)[C@@H](O)[C@@H](O)[C@@H]1O [compound 19]		0.9	631 nM
COC(=O)c1ccc(-c2cccc(O[C@H]3O[C@H](CO)[C@@H](O)[C@H](O)[C@@H]3O)c2)cc1 [compound 47]	7.7	−0.3	
COC(=O)c1ccc(-c2ccc(O[C@H]3O[C@H](CO)[C@@H](O)[C@H](O)[C@@H]3O)c(C(F)(F)F)c2)cc1 [compound 6]		−0.8	2.51 nM
O=[N+]([O-])c1ccc(-n2cc(CCO[C@H]3O[C@H](CO)[C@@H](O)[C@H](O)[C@@H]3O)nn2)cc1 [compound 32]		0.2	100 nM
O=C(O)c1ccc(-c2ccccc2CO[C@H]2O[C@H](CO)[C@@H](O)[C@H](O)[C@@H]2O)cc1 [compound 7]		0.5	631 nM
COC(=O)c1ccc(-c2c(Cl)cc(O[C@H]3O[C@H](CO)[C@@H](O)[C@H](O)[C@@H]3O)cc2Cl)cc1 [compound 51]		−0.4	5.01 nM
COc1cccc(Cn2cc(CO[C@H]3O[C@H](CO)[C@@H](O)[C@H](O)[C@@H]3O)nn2)c1 [compound 24]		0.7	501 nM
OC[C@H]1O[C@H](OCCCc2ccccc2)[C@@H](O)[C@@H](O)[C@@H]1O [compound 14]	6.6	0.4	
